Molecular target: Histamine H3 receptor (Homo sapiens, UniProt Q9Y5N1)
Assay: Modulation of human histamine H3 receptor expressed in HEK293 cells assessed as change in forskolin-stimulated cAMP level after 1 hr by HTRF assay
Format: functional, cell-based

Chain of Histamine H3 receptor (Q9Y5N1 whole entry): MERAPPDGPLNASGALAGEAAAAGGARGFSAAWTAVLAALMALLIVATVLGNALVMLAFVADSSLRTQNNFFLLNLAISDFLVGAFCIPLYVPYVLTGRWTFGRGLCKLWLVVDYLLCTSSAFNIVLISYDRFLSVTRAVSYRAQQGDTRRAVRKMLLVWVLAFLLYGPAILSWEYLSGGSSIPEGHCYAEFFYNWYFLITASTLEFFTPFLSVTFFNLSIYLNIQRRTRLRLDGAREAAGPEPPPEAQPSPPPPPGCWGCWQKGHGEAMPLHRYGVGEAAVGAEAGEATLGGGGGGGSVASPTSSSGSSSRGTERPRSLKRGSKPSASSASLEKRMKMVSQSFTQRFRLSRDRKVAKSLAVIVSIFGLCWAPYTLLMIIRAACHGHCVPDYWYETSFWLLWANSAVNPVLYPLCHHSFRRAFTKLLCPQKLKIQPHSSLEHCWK

Compound	IC50 [nM]
C[C@@H]1CCCN1CCc1ccc(-c2ccc(CCNC(=O)C(C)(C)C(=O)OC(C)(C)C)cc2)cc1	0.95
C[C@@H](C(=O)NCCc1ccc(-c2ccc(CCN3CCC[C@H]3C)cc2)cc1)C(=O)OC(C)(C)C	2.1
COC(=O)CCCC(=O)NC1(c2ccc(-c3ccc(CCN4CCC[C@H]4C)cc3)cc2)CCCC1	15
COC(=O)CC(=O)NCCc1ccc(-c2ccc(CCN3CCC[C@H]3C)cc2)cc1	0.99
COC(=O)CC(=O)NC1(c2ccc(-c3ccc(CCN4CCC[C@H]4C)cc3)cc2)CCCC1	1.9
C[C@@H]1CCCN1CCc1ccc(-c2ccc(C3(NC(=O)CCCC(=O)O)CCCC3)cc2)cc1	2.1
COC(=O)C(C)(C)C(=O)Nc1ccc(-c2ccc(CCN3CCC[C@H]3C)cc2)cc1	1.2
C[C@@H]1CCCN1CCc1ccc(-c2ccc(NC(=O)CCC(=O)O)cc2)cc1	2.5
